Experimental data taken from ChEMBL document CHEMBL1150496, “Synthesis and biological activity of C-5 modified derivatives of (+)-AJ76 and (+)-UH232: Increased dopamine D3 receptor preference and improved pharmacokinetic properties” (Bioorg Med Chem Lett, 1994).
pKi: −log10 of the molar value. The source made the active and inactive calls. The rule behind the calls is not given here.

Legend:
D(2) dopamine receptor [1] = molecular target: T1, D(2) dopamine receptor (Homo sapiens, UniProt P14416); assay: Binding affinity was measured at cloned mammalian dopamine D2 receptor expressed in CHO-K1 cells (using [3H]U-86170); format: cell-based
[2] = molecular target: 5-hydroxytryptamine receptor 1A (Homo sapiens, UniProt P08908); assay: (§1) Binding affinity was measured at cloned mammalian 5-HT1A receptor expressed in CHO-K1 cells (using [3H]8-OH-DPAT ); format: cell-based
Rattus norvegicus [3] = assay: In vivo DOPAC level was measured in killed rat striatal brain regions at a dose of 200 umol/kg, sc; format: functional
D(3) dopamine receptor [4] = molecular target: D(3) dopamine receptor (Homo sapiens, UniProt P35462); assay: Binding affinity was measured at cloned mammalian dopamine D3 receptor expressed in CHO-K1 cells (using [3H]- spiperone); format: cell-based
[5] = In vivo percent of absolute bioavailability obtained from blood plasma levels analyzed by means of GC/MS (dose 5 uM/kg i.v. and 40 uM/kg, p.o.); format: ADME, organism-based; settings: rat, po
[6] = Half-life was estimated from the elimination phase of the oral [C] vs time curves in 4 rats; format: ADME, organism-based; settings: rat, in vivo
D(4) dopamine receptor [7] = molecular target: T2, D(4) dopamine receptor (Homo sapiens, UniProt P21917); assay: Binding affinity was measured at cloned mammalian dopamine D4 receptor expressed in CHO-K1 cells (using [3H]- spiperone); format: cell-based
T2 sequence (P21917 whole entry): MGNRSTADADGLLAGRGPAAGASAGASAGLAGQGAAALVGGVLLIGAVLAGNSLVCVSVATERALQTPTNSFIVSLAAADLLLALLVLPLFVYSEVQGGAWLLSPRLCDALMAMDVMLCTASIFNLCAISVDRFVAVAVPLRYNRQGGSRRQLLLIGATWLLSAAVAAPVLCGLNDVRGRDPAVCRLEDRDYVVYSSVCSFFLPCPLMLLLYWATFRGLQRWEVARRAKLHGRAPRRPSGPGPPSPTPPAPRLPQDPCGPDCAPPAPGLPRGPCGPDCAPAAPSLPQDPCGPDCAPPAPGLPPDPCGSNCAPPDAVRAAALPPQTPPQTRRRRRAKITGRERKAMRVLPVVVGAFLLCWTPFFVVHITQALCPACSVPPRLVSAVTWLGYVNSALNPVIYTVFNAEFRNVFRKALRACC

Rattus norvegicus [8] = assay: In vivo 5-HIAA level was measured in killed rat limbic brain regions at a dose of 200 umol/kg, sc; format: functional, Limbic system
Rattus norvegicus [9] = assay: In vivo HVA level was measured in killed rat striatal brain regions at a dose of 200 umol/kg, sc; format: functional
Rattus norvegicus [10] = assay: In vivo locomotor activity (LMA) in habituated rats at a dose of 200 umol/kg, sc, for 60 mins after 60 min habituation period; format: functional
Rattus norvegicus [11] = assay: In vivo DOPAC level was measured in killed rat striatal brain regions at a dose of 12.5 umol/kg, sc; format: functional
Rattus norvegicus [12] = assay: In vivo locomotor activity (LMA) in habituated rats at a dose of 50 umol/kg, sc, for 60 mins after 60 min habituation period; format: functional
Rattus norvegicus [13] = assay: In vivo 5-HIAA level was measured in killed rat limbic brain regions at a dose of 50 umol/kg, sc; format: functional, Limbic system
Rattus norvegicus [14] = assay: In vivo HVA level was measured in killed rat striatal brain regions at a dose of 50 umol/kg, sc; format: functional
Rattus norvegicus [15] = assay: In vivo HVA level was measured in killed rat striatal brain regions at a dose of 12.5 umol/kg, sc; format: functional
Rattus norvegicus [16] = assay: In vivo 5-HIAA level was measured in killed rat limbic brain regions at a dose of 12.5 umol/kg, sc; format: functional, Limbic system
Rattus norvegicus [17] = assay: In vivo DOPAC level was measured in killed rat striatal brain regions at a dose of 50 umol/kg, sc; format: functional
Rattus norvegicus [18] = assay: In vivo locomotor activity (LMA) in habituated rats at a dose of 12.5 umol/kg, sc, for 60 mins after 60 min habituation period; format: functional
Rattus norvegicus [19] = assay: In vivo 5-HIAA level was measured in killed rat limbic brain regions at a dose of 25 umol/kg, sc; format: functional, Limbic system
D(2) dopamine receptor [20] = molecular target: D(2) dopamine receptor (Rattus norvegicus, UniProt P61169); assay: Binding affinity was measured from rat striatal membrane using [3H]-spiperone at D2 receptors
[21] = molecular target: T3, 5-hydroxytryptamine receptor 1A (Homo sapiens, UniProt P08908); assay: as §1; format: cell-based; remark: listed apart in the source
T3 sequence (P08908 whole entry): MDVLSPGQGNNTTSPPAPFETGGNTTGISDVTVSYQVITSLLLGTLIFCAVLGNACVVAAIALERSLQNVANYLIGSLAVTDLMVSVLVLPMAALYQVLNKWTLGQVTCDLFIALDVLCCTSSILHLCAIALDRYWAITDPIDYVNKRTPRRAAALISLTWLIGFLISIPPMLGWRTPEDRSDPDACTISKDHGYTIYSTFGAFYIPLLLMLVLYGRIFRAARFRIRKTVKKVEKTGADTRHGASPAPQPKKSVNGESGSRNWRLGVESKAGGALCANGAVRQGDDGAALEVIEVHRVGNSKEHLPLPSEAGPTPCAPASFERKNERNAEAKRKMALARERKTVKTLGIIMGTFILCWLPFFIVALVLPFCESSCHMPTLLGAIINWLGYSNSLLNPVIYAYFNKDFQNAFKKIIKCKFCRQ

Rattus norvegicus [22] = assay: In vivo DOPAC level was measured in killed rat striatal brain regions at a dose of 100 umol/kg, sc; format: functional; set-up: unit not given here
D(2) dopamine receptor [23] = molecular target: T1, D(2) dopamine receptor; assay: Binding affinity was measured at cloned mammalian dopamine D2 receptor expressed in CHO-K1 cells (using [3H]U-86,170); NA means Inactive; format: cell-based
[24] = molecular target: D(3) dopamine receptor (Rattus norvegicus) (UniProt P19020); assay: Percent inhibition against dopamine D3 receptor at a concentration of 1 umol/L
Rattus norvegicus [25] = assay: In vivo HVA level was measured in killed rat striatal brain regions at a dose of 25 umol/kg, sc; format: functional
Rattus norvegicus [26] = assay: In vivo HVA level was measured in killed rat striatal brain regions at a dose of 100 umol/kg, sc; format: functional; set-up: unit not given here
D(3) dopamine receptor [27] = molecular target: D(3) dopamine receptor (Rattus norvegicus, UniProt P19020); assay: Binding affinity was measured at cloned mammalian dopamine D3 receptor expressed in CHO-K1 cells (using [3H]- spiperone); NA means inactive; format: cell-based
[28] = molecular target: T4, D(4) dopamine receptor (Homo sapiens) (UniProt P21917); assay: Percent inhibition against dopamine D4 receptor at a concentration of 1 umol/L
T4 sequence (whole entry): T2 sequence (P21917 whole entry)

Rattus norvegicus [29] = assay: In vivo locomotor activity (LMA) in habituated rats at a dose of 25 umol/kg, sc, for 60 mins after 60 min habituation period; format: functional
Rattus norvegicus [30] = assay: In vivo locomotor activity (LMA) in habituated rats at a dose of 100 umol/kg, sc, for 60 mins after 60 min habituation period; format: functional; set-up: unit not given here
D(2) dopamine receptor [31] = molecular target: T1, D(2) dopamine receptor; assay: Percent inhibition against dopamine D2 receptor at a concentration of 1 umol/L
Rattus norvegicus [32] = assay: In vivo 5-HIAA level was measured in killed rat limbic brain regions at a dose of 100 umol/kg, sc; format: functional, Limbic system; set-up: unit not given here
Rattus norvegicus [33] = assay: In vivo DOPAC level was measured in killed rat striatal brain regions at a dose of 25 umol/kg, sc; format: functional
D(4) dopamine receptor [34] = molecular target: T2, D(4) dopamine receptor; assay: Binding affinity was measured at cloned mammalian dopamine D4 receptor expressed in CHO-K1 cells (using [3H]- spiperone); NA means inactive; format: cell-based
Rattus norvegicus [35] = organism: Rattus norvegicus; assay: In vitro stability relative to (+)-AJ76 in rat hepatocyte assay; In active; format: functional
Rattus norvegicus [36] = assay: In vivo locomotor activity (LMA) in habituated rats at a dose of 100 umol/kg, oral, for 60 mins after 60 min habituation period; format: functional
Rattus norvegicus [37] = assay: In vivo HVA level was measured in killed rat striatal brain regions at a dose of 100 umol/kg, oral.; format: functional
Rattus norvegicus [38] = assay: In vivo DOPAC level was measured in killed rat striatal brain regions at a dose of 100 umol/kg, oral.; format: functional
[39] = molecular target: T5, 5-hydroxytryptamine receptor 1A (Rattus norvegicus, UniProt P19327); assay: Binding affinity was measured at 5-HT1A receptor in rat striatal membranes using [3H]8-OH-DPAT; format: cell membranes, Striatum, Membrane
T5 sequence (P19327 whole entry): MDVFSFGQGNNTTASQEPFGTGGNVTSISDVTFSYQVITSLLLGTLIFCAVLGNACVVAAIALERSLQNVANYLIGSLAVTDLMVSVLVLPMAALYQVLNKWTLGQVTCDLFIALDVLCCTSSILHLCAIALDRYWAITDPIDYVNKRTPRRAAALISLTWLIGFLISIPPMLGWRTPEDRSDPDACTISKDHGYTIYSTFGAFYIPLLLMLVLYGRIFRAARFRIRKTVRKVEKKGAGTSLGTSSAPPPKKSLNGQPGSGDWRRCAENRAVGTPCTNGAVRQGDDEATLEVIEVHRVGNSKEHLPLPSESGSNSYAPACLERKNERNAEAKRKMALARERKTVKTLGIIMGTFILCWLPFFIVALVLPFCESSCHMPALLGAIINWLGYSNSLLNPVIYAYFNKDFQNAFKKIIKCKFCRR

Rattus norvegicus [40] = assay: In vivo 5-HIAA level was measured in killed rat limbic brain regions at a dose of 100 umol/kg, oral; format: functional, Limbic system

T1 sequence (P14416 whole entry): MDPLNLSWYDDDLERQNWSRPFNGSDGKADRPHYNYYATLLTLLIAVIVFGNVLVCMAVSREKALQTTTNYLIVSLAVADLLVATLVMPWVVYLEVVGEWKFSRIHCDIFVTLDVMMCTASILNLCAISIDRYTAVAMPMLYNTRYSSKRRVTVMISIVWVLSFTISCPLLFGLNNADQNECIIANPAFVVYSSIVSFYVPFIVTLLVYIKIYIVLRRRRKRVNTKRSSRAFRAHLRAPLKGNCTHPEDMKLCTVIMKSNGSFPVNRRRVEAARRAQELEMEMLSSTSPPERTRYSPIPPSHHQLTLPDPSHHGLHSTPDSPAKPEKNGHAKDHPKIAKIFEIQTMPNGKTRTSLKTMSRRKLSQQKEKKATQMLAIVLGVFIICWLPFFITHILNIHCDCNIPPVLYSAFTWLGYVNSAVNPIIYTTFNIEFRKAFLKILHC
Chain of D(3) dopamine receptor (Homo sapiens, UniProt P35462) (P35462 whole entry): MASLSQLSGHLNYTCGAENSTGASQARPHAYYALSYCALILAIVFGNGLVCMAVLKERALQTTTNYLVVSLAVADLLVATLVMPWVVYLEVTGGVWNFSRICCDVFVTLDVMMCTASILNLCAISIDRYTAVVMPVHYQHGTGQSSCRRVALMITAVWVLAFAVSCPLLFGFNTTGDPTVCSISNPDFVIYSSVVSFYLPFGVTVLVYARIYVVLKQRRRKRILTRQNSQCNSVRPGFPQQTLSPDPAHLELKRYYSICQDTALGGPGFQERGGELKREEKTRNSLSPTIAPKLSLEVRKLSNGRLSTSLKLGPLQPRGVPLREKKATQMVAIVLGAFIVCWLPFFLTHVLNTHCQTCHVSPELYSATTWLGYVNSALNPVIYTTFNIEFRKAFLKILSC
Chain of D(2) dopamine receptor (Rattus norvegicus, UniProt P61169) (P61169 whole entry): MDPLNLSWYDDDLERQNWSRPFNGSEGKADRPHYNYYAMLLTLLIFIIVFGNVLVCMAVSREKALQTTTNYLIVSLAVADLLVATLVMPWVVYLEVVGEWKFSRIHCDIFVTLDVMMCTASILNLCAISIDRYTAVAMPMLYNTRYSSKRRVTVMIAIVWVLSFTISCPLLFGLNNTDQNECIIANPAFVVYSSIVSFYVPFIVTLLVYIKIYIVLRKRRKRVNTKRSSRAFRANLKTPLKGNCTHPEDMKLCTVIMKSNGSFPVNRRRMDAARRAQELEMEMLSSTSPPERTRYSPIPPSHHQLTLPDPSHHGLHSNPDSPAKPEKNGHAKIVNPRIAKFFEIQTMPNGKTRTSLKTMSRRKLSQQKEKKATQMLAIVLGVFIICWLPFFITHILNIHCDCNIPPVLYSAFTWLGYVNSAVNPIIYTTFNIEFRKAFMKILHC
Chain of D(3) dopamine receptor (Rattus norvegicus) (P19020 whole entry): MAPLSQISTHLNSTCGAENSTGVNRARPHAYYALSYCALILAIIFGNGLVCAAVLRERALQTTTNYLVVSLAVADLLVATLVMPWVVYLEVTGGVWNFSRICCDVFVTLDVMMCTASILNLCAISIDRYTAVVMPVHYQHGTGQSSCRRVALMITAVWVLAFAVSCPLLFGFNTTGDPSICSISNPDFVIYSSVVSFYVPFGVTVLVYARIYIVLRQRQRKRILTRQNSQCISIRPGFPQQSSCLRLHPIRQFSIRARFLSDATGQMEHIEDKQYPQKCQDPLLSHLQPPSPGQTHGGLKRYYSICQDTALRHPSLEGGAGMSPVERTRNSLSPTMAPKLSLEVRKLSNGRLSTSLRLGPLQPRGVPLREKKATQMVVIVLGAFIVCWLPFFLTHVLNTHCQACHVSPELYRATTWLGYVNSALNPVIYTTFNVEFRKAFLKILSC
Chain of D(3) dopamine receptor (Rattus norvegicus, UniProt P19020) (P19020 whole entry): as above

| SMILES | pKi (D(2) dopamine receptor [1]) | pKi [2] | Activity (Rattus norvegicus [3]) | pKi (D(3) dopamine receptor [4]) | bioavailability [5] [%] | half-life [6] [h] | pKi (D(4) dopamine receptor [7]) | Activity (Rattus norvegicus [8]) | Activity (Rattus norvegicus [9]) | Activity (Rattus norvegicus [10]) | Activity (Rattus norvegicus [22]) | Activity (Rattus norvegicus [26]) | Activity (Rattus norvegicus [30]) | Activity (Rattus norvegicus [32]) | further results |
| --- | --- | --- | --- | --- | --- | --- | --- | --- | --- | --- | --- | --- | --- | --- | --- |
| CCCN(CCC)[C@@H]1CCc2c(OS(=O)(=O)C(F)(F)F)cccc2[C@@H]1C | 6.26 | < 5.46 | <146 | 7.40 | 9.4 | 6 | 6.92 | 94 | <163 | <250 |  |  |  |  |  |
| CCCN[C@@H]1CCc2c(OC)cccc2[C@@H]1C | 6.84 |  |  |  | 1.6 | 1 |  |  |  |  |  |  |  |  | Activity (Rattus norvegicus [11]): <220; Activity (Rattus norvegicus [12]): <354; Activity (Rattus norvegicus [13]): 127; Activity (Rattus norvegicus [14]): <402; Activity (Rattus norvegicus [15]): <251; Activity (Rattus norvegicus [16]): 121; Activity (Rattus norvegicus [17]): <346; Activity (Rattus norvegicus [18]): <272 |
| CCCN[C@@H]1CCc2c(C#N)cccc2[C@@H]1C |  |  |  |  |  |  |  |  |  |  | <224 | <248 | 149 | 100 | Activity (Rattus norvegicus [19]): 102; pKi (D(2) dopamine receptor [20]): 4.78; pKi [21]: < 5.75; Ki (D(2) dopamine receptor [23]): Not Active; inhibition [24]: < 50%; Activity (Rattus norvegicus [25]): 136; Ki (D(3) dopamine receptor [27]): Not Active; inhibition [28]: < 50%; Activity (Rattus norvegicus [29]): 165; inhibition (D(2) dopamine receptor [31]): < 50%; Activity (Rattus norvegicus [33]): 121; Ki (D(4) dopamine receptor [34]): Not Active |
| CCCN(CCC)[C@@H]1CCc2c(C(N)=O)cccc2[C@@H]1C |  |  |  |  |  |  |  |  |  |  | 135 | 128 | 169 | 113 |  |
| CCCN[C@@H]1CCc2c(C(=O)OC)cccc2[C@@H]1C | 5.63 | 6.54 | 117 | 6.60 |  |  | 5.80 | <75 | 120 | 102 |  |  |  |  |  |
| CCCN(CCC)[C@@H]1CCc2c(OC)cccc2[C@@H]1C | 7.82 |  |  | 8.38 | 3.7 | 2.5 |  |  |  |  |  |  |  |  | Activity (Rattus norvegicus [11]): <176; Activity (Rattus norvegicus [12]): <200; Activity (Rattus norvegicus [15]): <214; Activity (Rattus norvegicus [35]): inactive; Activity (Rattus norvegicus [16]): 119; Activity (Rattus norvegicus [18]): <191 |
| CCCN(CCC)[C@@H]1CCc2c(C#N)cccc2[C@@H]1C |  |  |  |  |  |  |  |  |  |  | <213 | <241 | <334 | 95 | Activity (Rattus norvegicus [36]): <287; Activity (Rattus norvegicus [19]): 93; pKi (D(2) dopamine receptor [20]): 5.18; Activity (Rattus norvegicus [37]): <166; Activity (Rattus norvegicus [38]): <128; pKi [39]: 5.30; Activity (Rattus norvegicus [25]): <134; Activity (Rattus norvegicus [29]): 125; Activity (Rattus norvegicus [33]): <127; Activity (Rattus norvegicus [40]): 82 |
| CCCN[C@@H]1CCc2c(OS(=O)(=O)C(F)(F)F)cccc2[C@@H]1C | 5.59 | 5.51 | <130 | 6.77 | 62.2 | 6 | 6.21 | 92 | <135 | 167 |  |  |  |  |  |
| CCCN[C@@H]1CCc2c(C(N)=O)cccc2[C@@H]1C |  |  |  |  |  |  |  |  |  |  | 109 | 105 | 215 | 97 | pKi [39]: 5.17 |
